Experimental data reported in PubChem BioAssay AID256 (DTP/NCI, 2004).
Where “and” joins values, the source holds several entries; their conditions need not be identical. Equal entries are not always repeated. Toxic doses and inconclusive results are not listed. How the source made its calls: active means survival T/C of 150% or more; inactive means T/C below 125% in these data.

Tested on: CD2F1 mice, L1210 leukemia ip, survival T/C
Assay: NCI In Vivo Anticancer Drug Screen. Data for tumor model L1210 Leukemia (intraperitoneal) in CD2F1 (CDF1) mice
Details: higher = longer survival
Outline: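 Implant tumor; dose compound or vehicle; measure endpoint in both groups; report treated divided by control.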

[1] = endpoint: mean survival time, dose: 100.0 mg/kg/injection, schedule: Q04DX003 (ip), vehicle: saline
[2] = endpoint: mean survival time, dose: 200.0 mg/kg/injection, schedule: Q04DX003 (ip), vehicle: saline
[3] = endpoint: mean survival time, dose: 400.0 mg/kg/injection, schedule: Q04DX003 (ip), vehicle: saline
[4] = endpoint: mean survival time, dose: 50.0 mg/kg/injection, schedule: Q01DX009 (ip), vehicle: saline with Tween-80
[5] = endpoint: mean survival time, dose: 100.0 mg/kg/injection, schedule: Q01DX009 (ip), vehicle: saline with Tween-80
[6] = endpoint: mean survival time, dose: 100.0 mg/kg/injection, schedule: Q04DX003 (ip), vehicle: saline with Tween-80
[7] = endpoint: mean survival time, dose: 200.0 mg/kg/injection, schedule: Q04DX003 (ip), vehicle: saline with Tween-80
[8] = endpoint: mean survival time, dose: 400.0 mg/kg/injection, schedule: Q04DX003 (ip), vehicle: saline with Tween-80
[9] = endpoint: mean survival time, dose: 50.0 mg/kg/injection, schedule: Q01DX009 (ip), vehicle: saline

Measured: T/C

OCCO
inactive: endpoint: mean survival time, dose: 100.0 mg/kg/injection, schedule: Q01DX009 (ip), vehicle: saline sonified 94 % of control and 101 % of control | [1] 103 % of control and 106 % of control | endpoint: mean survival time, dose: 200.0 mg/kg/injection, schedule: Q01DX009 (ip), vehicle: saline sonified 94 % of control and 101 % of control | [2] 104 % of control and 98 % of control | endpoint: mean survival time, dose: 400.0 mg/kg/injection, schedule: Q01DX009 (ip), vehicle: saline sonified 93 % of control and 104 % of control | [3] 104 % of control and 101 % of control | endpoint: median survival time, dose: 0.25 % in 0.5 ml injection vol, schedule: Q01DX009 (ip), vehicle: water 95 % of control | endpoint: median survival time, dose: 0.5 % in 0.5 ml injection vol, schedule: Q01DX009 (ip), vehicle: water 94 % of control | endpoint: median survival time, dose: 1.0 % in 0.5 ml injection vol, schedule: Q01DX009 (ip), vehicle: water 94 % of control | endpoint: median survival time, dose: 2.0 % in 0.5 ml injection vol, schedule: Q01DX009 (ip), vehicle: water 105 % of control

CC1(C)OC2C(/C=C3/CC(=O)NC3=O)OC(n3ccc(=O)[nH]c3=O)C2O1 (stereo unspecified)
inactive: endpoint: mean survival time, dose: 12.5 mg/kg/injection, schedule: Q01DX005 (ip), vehicle: distilled water + Tween-80 100 % of control | endpoint: mean survival time, dose: 25.0 mg/kg/injection, schedule: Q01DX005 (ip), vehicle: distilled water + Tween-80 100 % of control | endpoint: mean survival time, dose: 50.0 mg/kg/injection, schedule: Q01DX005 (ip), vehicle: distilled water + Tween-80 103 % of control | endpoint: mean survival time, dose: 100.0 mg/kg/injection, schedule: Q01DX005 (ip), vehicle: distilled water + Tween-80 100 % of control | endpoint: mean survival time, dose: 200.0 mg/kg/injection, schedule: Q01DX005 (ip), vehicle: distilled water + Tween-80 103 % of control

O=C(N/N=C\c1ccc(Cl)cc1)c1ccccc1
inactive: [4] 94 % of control | [5] 101 % of control | endpoint: mean survival time, dose: 200.0 mg/kg/injection, schedule: Q01DX009 (ip), vehicle: saline with Tween-80 95 % of control

Cc1cc2nc(N)n(C3OC(CO)C(O)C3O)c2cc1C (stereo unspecified)
inactive: endpoint: mean survival time, dose: 75.0 mg/kg/injection, schedule: Q01DX001 (ip), vehicle: saline 108 % of control | endpoint: mean survival time, dose: 150.0 mg/kg/injection, schedule: Q01DX001 (ip), vehicle: saline 105 % of control | endpoint: mean survival time, dose: 300.0 mg/kg/injection, schedule: Q01DX001 (ip), vehicle: saline 103 % of control

COC(=O)c1ccc(SSc2ccc(C(=O)OC)cc2[N+](=O)[O-])c([N+](=O)[O-])c1
inactive: [6] 103 % of control | [7] 96 % of control | [8] 96 % of control

Cn1cc(C2NC(=O)c3ccccc3N2)c2ccccc21 (stereo unspecified)
inactive: endpoint: median survival time, dose: 100.0 mg/kg/injection, schedule: Q01DX009 (ip), vehicle: Klucel (hydroxypropylcellulose) (HPC) 119 % of control

Cc1cc(C(O)CNCCCn2c(N3CCOCC3)nc3c2c(=O)n(C)c(=O)n3C)ccc1O (stereo unspecified)
inactive: endpoint: mean survival time, dose: 12.5 mg/kg/injection, schedule: Q01DX005 (ip), vehicle: water 96 % of control | endpoint: mean survival time, dose: 25.0 mg/kg/injection, schedule: Q01DX005 (ip), vehicle: water 97 % of control | endpoint: mean survival time, dose: 50.0 mg/kg/injection, schedule: Q01DX005 (ip), vehicle: water 97 % of control | endpoint: mean survival time, dose: 100.0 mg/kg/injection, schedule: Q01DX005 (ip), vehicle: water 96 % of control | endpoint: mean survival time, dose: 200.0 mg/kg/injection, schedule: Q01DX005 (ip), vehicle: water 100 % of control

O=C1C=CC(=O)N1c1cc(Cl)ccc1Cl
inactive: [6] 93 % of control | [7] 93 % of control

CCOC(=O)/C=C(\C)N1CCCCC1
inactive: [1] 92 % of control | [2] 91 % of control | [3] 94 % of control

CC1(C)Nc2cc3c(cc2-n2cccc21)oc1ccccc13
inactive: endpoint: median survival time, dose: 50.0 mg/kg/injection, schedule: Q01DX005 (ip), vehicle: DMSO 98 % of control | endpoint: median survival time, dose: 100.0 mg/kg/injection, schedule: Q01DX005 (ip), vehicle: DMSO 103 % of control | endpoint: median survival time, dose: 200.0 mg/kg/injection, schedule: Q01DX005 (ip), vehicle: DMSO 100 % of control | endpoint: median survival time, dose: 400.0 mg/kg/injection, schedule: Q01DX005 (ip), vehicle: DMSO 101 % of control | endpoint: median survival time, dose: 800.0 mg/kg/injection, schedule: Q01DX005 (ip), vehicle: DMSO 103 % of control

NC(N)=NO
inactive: endpoint: mean survival time, dose: 25.0 mg/kg/injection, schedule: Q01DX009 (ip), vehicle: water 113 % of control | endpoint: mean survival time, dose: 50.0 mg/kg/injection, schedule: Q01DX009 (ip), vehicle: water 124 % of control | endpoint: mean survival time, dose: 200.0 mg/kg/injection, schedule: Q01DX009 (ip), vehicle: water 117 % of control | endpoint: mean survival time, dose: 300.0 mg/kg/injection, schedule: Q01DX009 (ip), vehicle: water 116 % of control | endpoint: mean survival time, dose: 500.0 mg/kg/injection, schedule: Q01DX009 (ip), vehicle: water 124 % of control

ClP1(c2ccccc2)=NP(Cl)(c2ccccc2)=NP(Cl)(c2ccccc2)=NP(Cl)(c2ccccc2)=N1 (stereo unspecified)
inactive: [6] 96 % of control | [7] 94 % of control

CC1(C)OC2C(CO)OC(n3nc(SCc4ccccc4)c(=S)[nH]c3=O)C2O1 (stereo unspecified)
inactive: endpoint: median survival time, dose: 12.5 mg/kg/injection, schedule: Q01DX005 (ip), vehicle: distilled water + Tween-80 96 % of control | endpoint: median survival time, dose: 25.0 mg/kg/injection, schedule: Q01DX005 (ip), vehicle: distilled water + Tween-80 103 % of control | endpoint: median survival time, dose: 50.0 mg/kg/injection, schedule: Q01DX005 (ip), vehicle: distilled water + Tween-80 96 % of control | endpoint: median survival time, dose: 100.0 mg/kg/injection, schedule: Q01DX005 (ip), vehicle: distilled water + Tween-80 96 % of control | endpoint: median survival time, dose: 200.0 mg/kg/injection, schedule: Q01DX005 (ip), vehicle: distilled water + Tween-80 95 % of control

C1CCC2C(C1)NC1CCCCC12 (stereo unspecified)
inactive: endpoint: mean survival time, dose: 25.0 mg/kg/injection, schedule: Q01DX009 (ip), vehicle: saline 89 % of control | [9] 89 % of control

[CH3][Sb]([CH3])([CH3])([O]C(=O)CCl)[O]C(=O)CCl
inactive: endpoint: mean survival time, dose: 100.0 mg/kg/injection, schedule: Q04DX002 (ip), vehicle: saline with Tween-80 107 % of control | endpoint: mean survival time, dose: 200.0 mg/kg/injection, schedule: Q04DX002 (ip), vehicle: saline with Tween-80 107 % of control | endpoint: mean survival time, dose: 400.0 mg/kg/injection, schedule: Q04DX002 (ip), vehicle: saline with Tween-80 103 % of control

CCN(CCN(C)C(C)(C)C(C)(C)C)C(=O)C(O)(c1ccccc1)c1ccccc1
inactive: [4] 103 % of control | [5] 110 % of control

COC(=O)c1ccccc1NC(=O)/C=C/C(=O)O
inactive: [9] 94 % of control | endpoint: mean survival time, dose: 100.0 mg/kg/injection, schedule: Q01DX009 (ip), vehicle: saline 88 % of control | [6] 98 % of control | endpoint: mean survival time, dose: 200.0 mg/kg/injection, schedule: Q01DX009 (ip), vehicle: saline 90 % of control | [7] 95 % of control

CC(C)(O)c1cc(Cl)c(C#N)c(Cl)c1
inactive: endpoint: mean survival time, dose: 37.5 mg/kg/injection, schedule: Q04DX002 (ip), vehicle: saline with Tween-80 109 % of control | endpoint: mean survival time, dose: 75.0 mg/kg/injection, schedule: Q04DX002 (ip), vehicle: saline with Tween-80 102 % of control | endpoint: mean survival time, dose: 150.0 mg/kg/injection, schedule: Q04DX002 (ip), vehicle: saline with Tween-80 102 % of control | endpoint: mean survival time, dose: 300.0 mg/kg/injection, schedule: Q04DX002 (ip), vehicle: saline with Tween-80 93 % of control

CCCCCCCCCCSCC(N)C(=O)O (stereo unspecified)
inactive: endpoint: mean survival time, dose: 25.0 mg/kg/injection, schedule: Q01DX009 (ip), vehicle: other 88 % of control | endpoint: mean survival time, dose: 50.0 mg/kg/injection, schedule: Q01DX009 (ip), vehicle: other 88 % of control | endpoint: mean survival time, dose: 100.0 mg/kg/injection, schedule: Q01DX009 (ip), vehicle: other 94 % of control | endpoint: mean survival time, dose: 200.0 mg/kg/injection, schedule: Q01DX009 (ip), vehicle: other 94 % of control | endpoint: mean survival time, dose: 400.0 mg/kg/injection, schedule: Q01DX009 (ip), vehicle: other 97 % of control

O=C(NCCCCOc1ccc([N+](=O)[O-])cc1Cl)NC1CCCCC1
inactive: [6] 102 % of control | [7] 94 % of control | [8] 91 % of control
